Measured values published in ChEMBL document CHEMBL1201862, “PubChem BioAssay data set” (2004).
Calls of active or inactive are those of the source.

Assays:
[1] = biological target: T1, Zinc finger protein mex-5 (Caenorhabditis elegans, UniProt Q9XUB2); experiment: MEX-5/TCR-2 RNA interaction inhibitors, dose response, biochemical, C. elegans, fluorescence polarization (AID 1960)
T1 sequence (Q9XUB2 whole entry): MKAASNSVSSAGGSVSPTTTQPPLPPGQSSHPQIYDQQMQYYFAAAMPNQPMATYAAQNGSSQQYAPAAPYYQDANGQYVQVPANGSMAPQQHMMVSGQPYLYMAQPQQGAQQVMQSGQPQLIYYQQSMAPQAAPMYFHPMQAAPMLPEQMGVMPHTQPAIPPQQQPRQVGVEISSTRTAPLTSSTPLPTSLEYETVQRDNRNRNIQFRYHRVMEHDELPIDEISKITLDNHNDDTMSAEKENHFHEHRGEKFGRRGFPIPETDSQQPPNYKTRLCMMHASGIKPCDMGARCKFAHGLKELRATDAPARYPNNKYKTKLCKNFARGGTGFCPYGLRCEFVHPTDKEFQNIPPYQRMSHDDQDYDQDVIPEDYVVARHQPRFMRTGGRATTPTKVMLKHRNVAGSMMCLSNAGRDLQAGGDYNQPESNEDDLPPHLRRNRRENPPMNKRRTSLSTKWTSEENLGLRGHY

[2] = biological target: T2, RNA-binding protein pos-1 (Caenorhabditis elegans, UniProt G5EF15); experiment: inhibitors of POS-1/mex-3 RNA binding, dose response, biochemical, fluorescence polarization (AID 1964);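 further: purified POS-1 fused to maltose binding protein made in E. coli; potency of compounds blocking POS-1 binding to fluorescent RNA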
T2 sequence (G5EF15 whole entry): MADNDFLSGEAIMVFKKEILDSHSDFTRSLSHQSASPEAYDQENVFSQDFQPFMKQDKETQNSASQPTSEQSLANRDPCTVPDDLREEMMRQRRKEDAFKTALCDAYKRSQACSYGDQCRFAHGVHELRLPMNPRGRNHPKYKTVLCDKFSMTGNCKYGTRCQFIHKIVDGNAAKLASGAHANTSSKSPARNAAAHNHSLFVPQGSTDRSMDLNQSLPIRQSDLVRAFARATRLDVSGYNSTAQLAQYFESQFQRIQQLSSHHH

[3] = biological target: UDP-galactopyranose mutase (Mycobacterium tuberculosis, UniProt P9WIQ1); experiment: Inhibitors of Mycobacterium tuberculosis UDP-galactopyranose mutase (UGM) enzyme Measured in Biochemical System Using Plate Reader - 2105-02_Inhibitor_Dose_CherryPick_Activity. [Related pubchem assays (depositor defined):AID504439]
Cytochrome P450 1A2 = biological target: T3, Cytochrome P450 1A2 (Homo sapiens, UniProt P05177);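 further: PubChem cytochrome P450 panel assay, CYP1A2 panel member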
T3 sequence (P05177 whole entry): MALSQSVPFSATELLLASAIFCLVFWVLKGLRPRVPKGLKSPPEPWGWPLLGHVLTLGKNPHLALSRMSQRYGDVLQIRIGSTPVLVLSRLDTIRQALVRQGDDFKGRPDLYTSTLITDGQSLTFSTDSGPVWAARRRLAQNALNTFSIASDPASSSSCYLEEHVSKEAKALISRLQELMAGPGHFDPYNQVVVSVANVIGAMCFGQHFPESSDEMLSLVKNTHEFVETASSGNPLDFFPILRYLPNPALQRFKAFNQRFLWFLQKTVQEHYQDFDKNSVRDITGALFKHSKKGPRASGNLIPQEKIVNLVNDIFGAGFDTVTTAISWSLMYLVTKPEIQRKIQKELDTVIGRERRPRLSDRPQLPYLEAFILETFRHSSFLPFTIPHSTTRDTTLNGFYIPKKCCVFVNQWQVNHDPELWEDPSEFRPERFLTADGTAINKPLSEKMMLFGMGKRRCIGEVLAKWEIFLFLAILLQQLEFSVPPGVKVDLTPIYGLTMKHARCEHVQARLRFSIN

Chain of UDP-galactopyranose mutase (P9WIQ1 whole entry): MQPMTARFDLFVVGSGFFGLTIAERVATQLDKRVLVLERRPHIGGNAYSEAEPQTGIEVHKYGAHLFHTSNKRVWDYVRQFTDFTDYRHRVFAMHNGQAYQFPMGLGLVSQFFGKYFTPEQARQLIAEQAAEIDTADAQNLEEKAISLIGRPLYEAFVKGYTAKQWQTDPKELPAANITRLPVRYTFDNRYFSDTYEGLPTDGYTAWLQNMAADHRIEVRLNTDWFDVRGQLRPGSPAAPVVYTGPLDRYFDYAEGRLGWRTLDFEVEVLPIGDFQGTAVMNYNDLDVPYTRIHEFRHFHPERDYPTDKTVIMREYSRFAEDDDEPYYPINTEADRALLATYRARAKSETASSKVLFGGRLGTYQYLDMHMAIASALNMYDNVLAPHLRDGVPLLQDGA

SMILES: O=C1c2cccc3c(N4CCCCC4)ccc(c23)C(=O)N1c1ccccn1
- EC50 [1]: 5.26 µM (inconclusive)
- EC50 [2]: > 300 µM (inconclusive)
- AC50 [3]: 58.7 µM (active)

SMILES: O=C(c1cnccn1)N1CCC2(CCN(Cc3cc(C(F)(F)F)cc(C(F)(F)F)c3)CC2)CC1
- AC50 (Cytochrome P450 1A2): inactive
